# Data taken from patent US8119614B2, “Substitution derivatives of N6-benzyladenosine, methods of their preparation, their use for preparation of drugs, cosmetic preparations and growth regulators, pharmaceutical preparations, cosmetic preparations and growth regulators containing these compounds” (Ustav Experimentalni Botaniky Akademie Ved Ceske Republiky, priority 2002, dated 2012).
# Key:
# [1] = tested on: HOS; assay: In vitro cytotoxic activity, Calcein AM assay, HOS; format: cell-based; settings: 72 hours
# [2] = tested on: human erythroleukaemia K562; assay: In vitro cytotoxic activity, Calcein AM assay, K-562; format: cell-based; settings: 72 hours, read-out: IC 50 K-562
# Source text: (§1) One of the parameters used, as the basis for cytotoxicity assays, is the metabolic activity of viable cells. For example, a microtiter assay, which uses the Calcein AM, is now widely used to quantitate cell proliferation and cytotoxicity. For instance, this assay is used in drug screening programs and in chemosensitivity testing. Because only metabolically active cells cleave Calcein AM, these assays detect viable cells exclusively. The quantity of reduced Calcein AM corresponds to the number of vital cells in the culture.
# (§2) Human T-lymphoblastic leukemia cell line CEM; promyelocytic HL-60 and monocytic U937 leukemias; breast carcinoma cell lines MCF-7; cervical carcinoma cells HELA; mouse fibroblasts NIH3T3; human erythroleukaemia K562 and human malignant melanoma cells G361 were used for routine screening of compounds. The cells were maintained in Nunc/Corning 80 cm^2 plastic tissue culture flasks and cultured in cell culture medium (DMEM with 5 g/l glucose, 2 mM glutamine, 100 U/ml penicillin, 100 μg/ml streptomycin, 10% fetal calf serum and sodium bicarbonate).
# (§3) The cell suspensions that were prepared and diluted according to the particular cell type and the expected target cell density (10^4 cells per well based on cell growth characteristics) were added by pipette (80 μl) into 96/well microtiter plates. Inoculates were allowed a pre-incubation period of 24 hours at 37° C. and 5% CO2 for stabilisation. Four-fold dilutions of the intended test concentration were added at time zero in 20 μl aliquots to the microtiter plate wells. Usually, test compound was evaluated at six 4-fold dilutions. In routine testing, the highest well concentration was 166.7 μM, but it can be the matter of change dependent on the agent. All drug concentrations were examined in duplicates. Incubations of cells with the test compounds lasted for 72 hours at 37° C., in 5% CO2 atmosphere and 100% humidity. At the end of incubation period, the cells were assayed by using the Calcein AM. Ten microliters of the stock solution were pipetted into each well and incubated further for 1 hours. Fluorescence (FD) was measured with the Labsystem FIA Reader Fluoroscan Ascent (UK). The tumour cell survival (GI50) was calculated using the following equitation: GI50=(FDdrug exposed well/mean FDcontrol wells)×100%. The GI50 value, the drug concentration lethal to 50% of the tumour cells, was calculated from the obtained dose response curves (FIG. 3).
# [3] = tested on: breast carcinoma cell lines MCF-7; assay: In vitro cytotoxic activity, Calcein AM assay, MCF7; format: cell-based, human; settings: 72 hours, read-out: IC 50 MCF7
# Source text: as §1, §2, §3
# [4] = tested on: mouse fibroblasts NIH3T3; assay: In vitro cytotoxic activity, Calcein AM assay, NIH-3T3; format: cell-based; settings: 72 hours, read-out: IC 50 NIH-3T3
# Source text: as §1, §2, §3
# [5] = tested on: promyelocytic HL-60; assay: In vitro cytotoxic activity, Calcein AM assay, HL60; format: cell-based, human; settings: 72 hours, read-out: IC 50 HL60
# Source text: as §1, §2, §3
# [6] = tested on: Triticum aestivum cv. Hereward; assay: Senescence inhibition on winter wheat leaf segments (chlorophyll retention); format: in vivo; settings: for Concentration with highest activity: chlorophyll retention in excised wheat leaf tips, 96 h dark; for Activity (%) [10^−4 mol · l^−1 BAP = 100%]: chlorophyll retention, at concentration with highest activity
# Experimental: Seeds of winter wheat, Triticum aestivum cv. Hereward, were washed under running water for 24 hours and then sown on vermiculite soaked with Knop's solution. They were placed in the grown chamber at 15° C. with a 16/8 h light period at 50 μmol·m^−2·s^−1. After 7 days, the first leaf was fully developed and the second leaf had started to grow. A tip section of the first leaf, approximately 35 mm long, was removed from 5 seedlings and trimmed slightly to a combined weight of 100 mg. The basal ends of the five leaf tips were placed in the wells of a microtiter polystyrene plate containing 150 μl of a cytokinin solution each. The entire plate was inserted into a plastic box lined with paper tissues soaked in distilled water to prevent leaf sections from drying out. After a 96 h incubation in the dark at 25° C., the leaves were removed and chlorophyll extracted by heating at 80° C. for 10 min in 5 ml of 80% ethanol (v/v). The sample volume was then restored to 5 ml by the addition of 80% ethanol (v/v). The absorbency of the extract was recorded at 665 nm. In addition, chlorophyll extracts from fresh leaves and leaf tips incubated in deionised water were measured. From the obtained data, the concentration with highest activity was selected for each compound tested. Relative activity of the compound at this concentration was calculated (Tab. 10). The activity obtained for 10^−4 M 6-benzylaminopurine (BAP) was postulated as 100%. The values shown are means of five replicates and the whole experiment was repeated twice. The cytokinins to be tested were dissolved in dimethylsulfoxide (DMSO) and the solution brought up to 10^−3M with distilled water. This stock was further diluted in distilled water to concentrations ranging from 10^−8M to 10^−4M.
# [7] = tested on: tobacco callus Nicotiana tabacum L. cv. Wisconsin 38; assay: Growth of cytokinin-dependent tobacco callus; format: cell-based; settings: for Activity (%) [10^−5 mol · l^−1 BAP = 100%]: callus growth, at concentration with highest activity; for Concentration with highest activity: fresh callus weight after four weeks
# Experimental: Cytokinin-dependent tobacco callus Nicotiana tabacum L. cv. Wisconsin 38 was maintained at 25° C. in darkness on modified Murashige-Skoog medium, containing per 1 liter: 4 μmol nicotinic acid, 2.4 μmol pyridoxine hydrochloride, 1.2 μmol thiamine, 26.6 μmol glycine, 1.37 μmol glutamine, 1.8 μmol myo-inositol, 30 g of sucrose, 8 g of agar, 5.37 μmol α-naphtylacetic acid (NAA) and 0.5 μmol benzylaminopurine (BAP). Subcultivation was carried out every three weeks. Fourteen days before the bioassay, the callus tissue was transferred to the media without 6-benzylaminopurine (BAP). Biological activity was determined from the increase in fresh callus weight after four weeks of cultivation. Five replicates were prepared for each cytokinin concentration and the entire test was repeated twice. From the obtained data, the concentration with highest activity was selected for each compound tested. Relative activity of the compound at this concentration was calculated (Tab. 6). […] The cytokinins to be tested were dissolved in dimethylsulfoxide (DMSO) and the solution brought up to 10^−3M with distilled water. This stock was further diluted in the respective media used for the biotest to concentrations ranging from 10^−8M to 10^−4M.
# [8] = tested on: Amaranthus caudatus cotyledon/hypocotyl explants; assay: Amaranthus bioassay (betacyanin content); format: in vivo; settings: for Concentration with highest activity: 48 h dark; for Activity (%) [10^−5 mol · l^−1 BAP = 100%]: at concentration with highest activity
# Experimental: Standard Amaranthus bioassay was performed with several modifications. The seeds of Amaranthus caudatus var. atropurpurea were surface-sterilised in 10% N-chlorobenzenesulfonamide (w/v) for 10 min and washed 5 times in deionized water. They were placed in 15 cm Petri dishes containing paper tissues saturated with deionized water. After 72 h of cultivation at 25° C. in darkness, the roots of the seedlings were cut off. The explants, consisting of two cotyledons and hypocotyls, were placed in 5 cm Petri dishes on two layers of filter paper soaked in 1 ml of incubation medium containing 10 μmol NA2HPO4-KH2PO4, pH 6.8, 5 μmol tyrosine and the cytokinin to be tested. There were 20 explants per dish. The procedure was carried out under a green safe light in a darkroom. After a 48 h of incubation at 25° C. in darkness, betacyanin was extracted by freezing the explants in 4 ml […] acetic acid. The concentration of betacyanin was determined by comparing the absorbance at 537 nm and 620 nm as follows: ΔA=[…]-[…]. From the obtained data, the concentration with highest activity was selected for each compound tested. Relative activity of the compound at this concentration was calculated (Tab. 12). […] The values shown in table 8 are means of five replicates and the entire test was repeated twice. The cytokinins to be tested were dissolved in dimethylsulfoxide (DMSO) and the solution brought up to 10^-3M with distilled water. This stock was further diluted in the respective media used for the biotest to concentrations ranging from 10^-8M to 10^-4M. […] From the data obtained (FIG. 14) the maximum effective concentration of the tested compound was calculated as well as its relative effectiveness at this concentration (Table 12). […]
# [9] = tested on: Human T-lymphoblastic leukemia cell line CEM; assay: In vitro cytotoxic activity, Calcein AM assay, CEM; format: cell-based; settings: 72 hours
# Source text: as §1, §2, §3
SMILES,IC50 [1] [µM],IC50 [2] [µM],IC50 [3] [µM],IC50 [4] [µM],IC50 [5] [µM],Concentration with highest activity [6],Activity (%) [10^−4 mol · l^−1 BAP = 100%] [6] [%],Activity (%) [10^−5 mol · l^−1 BAP = 100%] [7] [%],Concentration with highest activity [7],Concentration with highest activity [8],Activity (%) [10^−5 mol · l^−1 BAP = 100%] [8] [%],IC50 [9] [µM]
"OC[C@H]1O[C@@H](n2cnc3c(NCc4c(F)ccc(F)c4F)ncnc32)[C@H](O)[C@@H]1O [2,3,6-trifluorobenzylamino, 6-(2,3,6-trifluorobenzylamino)purine riboside]",> 167,> 167,> 167,> 167,13,10^−4 mol · l^−1,133 ± 14,92 ± 2,10^−5 mol · l^−1,10^−4 mol · l^−1,94 ± 1,
"OC[C@H]1O[C@@H](n2cnc3c(NCc4cc(F)c(F)cc4F)ncnc32)[C@H](O)[C@@H]1O [2,4,5-trifluorobenzylamino, 6-(2,4,5-trifluorobenzylamino)purine riboside]",,,,,,,,95 ± 3,10^−5 mol · l^−1,10^−4 mol · l^−1,120 ± 1,
"OC[C@H]1O[C@@H](n2cnc3c(NCc4ccc(Cl)cc4Cl)ncnc32)[C@H](O)[C@@H]1O [2,4-dichlorobenzylamino, 6-(2,4-dichlorobenzylamino)purine riboside]",> 167,85.7,127,> 167,96.3,10^−5 mol · l^−1,5 ± 1,,,10^−4 mol · l^−1,3 ± 2,86.7
"OC[C@H]1O[C@@H](n2cnc3c(NCc4ccc(F)cc4F)ncnc32)[C@H](O)[C@@H]1O [2,4-difluorobenzylamino, 6-(2,4-difluorobenzylamino)purine riboside]",> 167,7.4,> 167,> 167,3.4,10^−4 mol · l^−1,171 ± 8,,,10^−4 mol · l^−1,88 ± 7,7.1
"OC[C@H]1O[C@@H](n2cnc3c(NCc4ccccc4Br)ncnc32)[C@H](O)[C@@H]1O [2-bromobenzylamino, 6-(2-bromobenzylamino)purine riboside]",> 167,10,> 167,> 167,6.6,10^−5 mol · l^−1,86 ± 19,100 ± 4,10^−5 mol · l^−1,10^−4 mol · l^−1,147 ± 7,12.3
"OC[C@H]1O[C@@H](n2cnc3c(NCc4ccc(F)cc4Cl)ncnc32)[C@H](O)[C@@H]1O [2-chloro-4-fluorobenzylamino, 6-(2-chloro-4-fluorobenzylamino)purine riboside]",> 167,11.7,> 167,> 167,9,,,98 ± 4,10^−5 mol · l^−1,10^−4 mol · l^−1,115 ± 1,20.9
"OC[C@H]1O[C@@H](n2cnc3c(NCc4cc(F)cc(F)c4)ncnc32)[C@H](O)[C@@H]1O [3,5-difluorobenzylamino, 6-(3,5-difluorobenzylamino)purine riboside]",> 167,> 167,> 167,> 167,9.1,10^−4 mol · l^−1,195 ± 14,95 ± 3,10^−6 mol · l^−1,10^−4 mol · l^−1,88 ± 1,24.5
"COc1ccc(CNc2ncnc3c2ncn3[C@@H]2O[C@H](CO)[C@@H](O)[C@H]2O)cc1O [3-hydroxy-4-methoxybenzylamino, 6-(3-hydroxy-4-methoxybenzylamino)purine riboside]",> 167,> 167,> 167,> 167,> 167,10^−4 mol · l^−1,22 ± 5,,,10^−4 mol · l^−1,0,> 167
"OC[C@H]1O[C@@H](n2cnc3c(NCc4cccc(I)c4)ncnc32)[C@H](O)[C@@H]1O [3-jodobenzylamino, 6-(3-iodobenzylamino)purine riboside]",,,,,,10^−4 mol · l^−1,98 ± 4,47 ± 12,10^−6 mol · l^−1,10^−5 mol · l^−1,102 ± 18,
